Results taken from US11117915B2, “Antibacterial aminoglycoside analogs” (Cipla USA, Inc., priority 2007, dated 2021).
Values after ≈ are worked out from the molar mass of the structure shown. Where two headings read alike, the source gives them in different places.

Key:
P. aeruginosa ATCC 27853 = assay: MIC assay, CLSI broth microdilution, P. aeruginosa ATCC 27853 (APAE001); assay type: cell-based; conditions: Pseudomonas aeruginosa, read-out: MIC APAE001
Method: (§1) Minimum inhibitory concentrations (MIC) were determined by reference Clinical and Laboratory Standards Institute (CLSI) broth microdilution methods per M7-A7 [2006]. Quality control ranges utilizing E. coli ATCC 25922, P. aeruginosa ATCC 27853 and S. aureus ATCC 29213, and interpretive criteria for comparator agents were as published in CLSI M100-S17 [2007]. Briefly, serial two-fold dilutions of the test compounds were prepared at 2× concentration in Mueller Hinton Broth. The compound dilutions were mixed in 96-well assay plates in a 1:1 ratio with bacterial inoculum. The inoculum was prepared by suspension of a colony from an agar plate that was prepared the previous day. Bacteria were suspended in sterile saline and added to each assay plate to obtain a final concentration of 5×10^5 CFU/mL. The plates were incubated at 35° C. for 20 hours in ambient air.

E. coli ATCC 25922 = assay: MIC assay, CLSI broth microdilution, E. coli ATCC 25922 (AECO001); assay type: cell-based; conditions: for MIC: Escherichia coli, read-out: MIC AECO001; for MIC AECO001: Table 3, E. coli ATCC25922
Method: as §1
These MIC assays were conducted following the same protocol as set forth in Example 110. As shown, substituted sisomicin derivatives with groups other than methyl at the 6′-position have improved activity against strains expressing the AAC6′-modifying enzymes.

[1] = APAE001 is ATCC27853, 35° C., 20 hours
[2] = AECO001 is ATCC25922, 35° C., 20 hours

Row | Compound | MIC (P. aeruginosa ATCC 27853; ATCC27853, 20 h) [µg/mL] | MIC (E. coli ATCC 25922; ATCC25922, 20 h) [µg/mL] | MIC (P. aeruginosa ATCC 27853; [1]) [µg/mL] | MIC (E. coli ATCC 25922; [2]) [µg/mL] | MIC AECO001 (E. coli ATCC 25922) [µg/mL]
1 | CN[C@@H]1[C@@H](O)[C@@H](O[C@@H]2[C@@H](O)[C@H](O[C@H]3OC(CNCCO)=CC[C@H]3N)[C@@H](N)C[C@H]2NC(=O)[C@H](O)CCN)OC[C@]1(C)O [Example 2, 6′-(2-Hydroxy-ethyl)-1-(4-amino-2(R)-hydroxy-butyryl)-sisomicin] | 1 to 16 (≈ 1.69 to 27 µM) | 1 to 16 (≈ 1.69 to 27 µM) | – | – | –
2 | CN[C@@H]1[C@@H](O)[C@@H](O[C@@H]2[C@@H](O)[C@H](O[C@H]3OC(CNCC(O)CO)=CC[C@H]3N)[C@@H](N)C[C@H]2NC(=O)[C@H](O)CCN)OC[C@]1(C)O (stereo partly drawn) [Example 3, 6′-(2-Hydroxy-propanol)-1-(4-amino-2(R)-hydroxy-butyryl)-sisomicin] | > 16 | 1 to 16 (≈ 1.61 to 25.7 µM) | – | – | –
3 | CN[C@@H]1[C@@H](O)[C@@H](O[C@@H]2[C@@H](O)[C@H](O[C@H]3OC(CNCC4CCNCC4)=CC[C@H]3N)[C@@H](N)C[C@H]2NC(=O)[C@H](O)CCN)OC[C@]1(C)O [Example 4, 6′-(Methyl-piperidin-4-yl)-1-(4-amino-2(R)-hydroxy-butyryl)-sisomicin] | 1 to 16 (≈ 1.55 to 24.8 µM) | 1 to 16 (≈ 1.55 to 24.8 µM) | – | – | –
4 | CN[C@@H]1[C@@H](O)[C@@H](O[C@@H]2[C@@H](O)[C@H](O[C@H]3OC(CNCC4CC4)=CC[C@H]3N)[C@@H](N)C[C@H]2NC(=O)[C@H](O)CCN)OC[C@]1(C)O [Example 5, 6′-(Methyl-cyclopropyl)-1-(4-amino-2(R)-hydroxy-butyryl)-sisomicin] | 1 to 16 (≈ 1.66 to 26.5 µM) | < 1 | – | – | –
5 | CN[C@@H]1[C@@H](O)[C@@H](O[C@@H]2[C@@H](O)[C@H](O[C@H]3OC(CNCCCN)=CC[C@H]3N)[C@@H](N)C[C@H]2NC(=O)[C@H](O)CCN)OC[C@]1(C)O [Example 6, 6′-(3-Amino-propyl)-1-(4-amino-2(R)-hydroxy-butyryl)-sisomicin] | 1 to 16 (≈ 1.65 to 26.4 µM) | 1 to 16 (≈ 1.65 to 26.4 µM) | – | – | –
6 | CN[C@@H]1[C@@H](O)[C@@H](O[C@@H]2[C@@H](O)[C@H](O[C@H]3OC(CNCC4CC4)=CC[C@H]3N)[C@@H](N)C[C@H]2NC(=O)[C@H](O)CN)OC[C@]1(C)O [Example 7, 6′-Methyl-cyclopropyl-1-(3-amino-2(R)-hydroxy-propionyl)-sisomicin] | 1 to 16 (≈ 1.7 to 27.2 µM) | < 1 | – | – | –
7 | CN[C@@H]1[C@@H](O)[C@@H](O[C@@H]2[C@@H](O)[C@H](O[C@H]3OC(CNCC4CCNCC4)=CC[C@H]3N)[C@@H](N)C[C@H]2NC(=O)[C@H](O)CN)OC[C@]1(C)O [Example 8, 6′-Methyl-piperidinyl-1-(3-amino-2(R)-hydroxy-propionyl)-sisomicin] | 1 to 16 (≈ 1.58 to 25.3 µM) | < 1 | – | – | –
8 | CN[C@@H]1[C@@H](O)[C@@H](O[C@@H]2[C@@H](O)[C@H](O[C@H]3OC(CNCCO)=CC[C@H]3N)[C@@H](N)C[C@H]2NC(=O)[C@H](O)CN)OC[C@]1(C)O [Example 9, 6′-(2-Hydroxy-ethyl)-1-(3-amino-2(R)-hydroxy-propionyl)-sisomicin] | > 16 | 1 to 16 (≈ 1.73 to 27.6 µM) | – | – | –
9 | CN[C@@H]1[C@@H](O)[C@@H](O[C@@H]2[C@@H](O)[C@H](O[C@H]3OC(CNCC(O)CO)=CC[C@H]3N)[C@@H](N)C[C@H]2NC(=O)[C@H](O)CN)OC[C@]1(C)O (stereo partly drawn) [Example 10, 6′-(2-Hydroxy-propanol)-1-(3-amino-2(R)-hydroxy-propionyl)-sisomicin] | 1 to 16 (≈ 1.64 to 26.3 µM) | 1 to 16 (≈ 1.64 to 26.3 µM) | – | – | –
10 | CN[C@@H]1[C@@H](O)[C@@H](O[C@@H]2[C@@H](O)[C@H](O[C@H]3OC(CNCCCN)=CC[C@H]3N)[C@@H](N)C[C@H]2NC(=O)[C@H](O)CN)OC[C@]1(C)O [Example 11, 6′-(3-Amino-propyl)-1-(3-amino-2(R)-hydroxy-propionyl)-sisomicin] | 1 to 16 (≈ 1.69 to 27 µM) | < 1 | – | – | –
11 | CN[C@@H]1[C@@H](O)[C@@H](O[C@@H]2[C@@H](O)[C@H](O[C@H]3OC(CNCC4CCNCC4)=CC[C@H]3N)[C@@H](N)C[C@H]2NC(=O)[C@@H](O)CCN)OC[C@]1(C)O [Example 12, 6′-(Methyl-piperidin-4-yl)-1-(4-amino-2(S)-hydroxy-butyryl)-sisomicin] | – | – | 1 to 16 (≈ 1.55 to 24.8 µM) | 1 to 16 (≈ 1.55 to 24.8 µM) | 1 (≈ 1.55 µM)
12 | CN[C@@H]1[C@@H](O)[C@@H](O[C@@H]2[C@@H](O)[C@H](O[C@H]3OC(CNCC4CC4)=CC[C@H]3N)[C@@H](N)C[C@H]2NC(=O)[C@@H](O)CN)OC[C@]1(C)O [Example 13, 6′-(Methyl-cyclopropyl)-1-(3-amino-2(S)-hydroxy-propionyl)-sisomicin] | – | – | > 16 | 1 to 16 (≈ 1.7 to 27.2 µM) | 1 (≈ 1.7 µM)
13 | CN[C@@H]1[C@@H](O)[C@@H](O[C@@H]2[C@@H](O)[C@H](O[C@H]3OC(CNCC(O)CO)=CC[C@H]3N)[C@@H](N)C[C@H]2NC(=O)[C@@H](O)CN)OC[C@]1(C)O (stereo partly drawn) [Example 14, 6′-(2-Hydroxy-propanol)-1-(3-amino-2(S)-hydroxy-propionyl)-sisomicin] | 1 to 16 (≈ 1.64 to 26.3 µM) | 1 to 16 (≈ 1.64 to 26.3 µM) | – | – | –
14 | CN[C@@H]1[C@@H](O)[C@@H](O[C@@H]2[C@@H](O)[C@H](O[C@H]3OC(CNCC4CC4)=CC[C@H]3N)[C@@H](N)C[C@H]2NC(=O)[C@@H](O)CCN)OC[C@]1(C)O [Example 18, 6′-(Methyl-cyclopropyl)-1-(4-amino-2(S)-hydroxy-butyryl)-sisomicin] | – | – | 1 to 16 (≈ 1.66 to 26.5 µM) | < 1 | 1 (≈ 1.66 µM)
15 | CN[C@@H]1[C@@H](O)[C@@H](O[C@@H]2[C@@H](O)[C@H](O[C@H]3OC(CNCC(O)CO)=CC[C@H]3N)[C@@H](N)C[C@H]2NC(=O)[C@@H](O)CCN)OC[C@]1(C)O (stereo partly drawn) [Example 19, 6′-(2-Hydroxy-propanol)-1-(4-amino-2(S)-hydroxy-butyryl)-sisomicin] | 1 to 16 (≈ 1.61 to 25.7 µM) | < 1 | – | – | –
16 | CN[C@@H]1[C@@H](O)[C@@H](O[C@@H]2[C@@H](O)[C@H](O[C@H]3OC(CNC(=O)C(O)CN)=CC[C@H]3N)[C@@H](N)C[C@H]2NC(=O)[C@@H](O)CN)OC[C@]1(C)O (stereo partly drawn) [Example 20, 6′-(3-Amino-2-hydroxy-propionyl)-1-(3-amino-2(S)-hydroxy-propionyl)-sisomicin] | > 16 | > 16 | – | – | –
17 | CN[C@@H]1[C@@H](O)[C@@H](O[C@@H]2[C@@H](O)[C@H](O[C@H]3OC(CNCC(O)C(N)=O)=CC[C@H]3N)[C@@H](N)C[C@H]2NC(=O)[C@@H](O)CN)OC[C@]1(C)O (stereo partly drawn) [Example 21, 6′-(2-Hydroxy-3-propionamide)-1-(3-amino-2(S)-hydroxy-propionyl)-sisomicin] | 1 to 16 (≈ 1.61 to 25.7 µM) | 1 to 16 (≈ 1.61 to 25.7 µM) | – | – | –
18 | CN[C@@H]1[C@@H](O)[C@@H](O[C@@H]2[C@@H](O)[C@H](O[C@H]3OC(CNCC(O)CO)=CC[C@H]3N)[C@@H](N)C[C@H]2NC(=O)CO)OC[C@]1(C)O (stereo partly shown) [Example 23, 6′-(2-Hydroxy-propanol)-1-(2-hydroxy-acetyl)-sisomicin] | > 16 | > 16 | – | – | –
19 | CNCC1=CC[C@@H](N)[C@@H](O[C@H]2C(O)[C@@H](O[C@H]3OC[C@](C)(O)[C@H](NC)[C@H]3O)[C@H](N)C[C@@H]2N)O1 (stereo partly shown) [Mono-substituted Compound 1, reference compound] | – | – | – | – | 1 (≈ 2.17 µM)
20 | CN[C@@H]1[C@@H](O)[C@@H](O[C@@H]2C(O)[C@H](O[C@H]3OC(CNCC4CC4)=CC[C@H]3N)[C@@H](N)C[C@H]2N)OC[C@]1(C)O (stereo partly shown) [Mono-substituted Compound 2, reference compound] | – | – | – | – | 1 (≈ 1.99 µM)
21 | CN[C@@H]1[C@@H](O)[C@@H](O[C@@H]2C(O)[C@H](O[C@H]3OC(CNCC4CCNCC4)=CC[C@H]3N)[C@@H](N)C[C@H]2N)OC[C@]1(C)O (stereo partly shown) [Mono-substituted Compound 3, reference compound] | – | – | – | – | 0.5 (≈ 0.918 µM)
22 | CN[C@@H]1[C@@H](O)[C@@H](O[C@@H]2C(O)[C@H](O[C@H]3OC(CNCCCN)=CC[C@H]3N)[C@@H](N)C[C@H]2N)OC[C@]1(C)O (stereo partly shown) [Mono-substituted Compound 4, reference compound] | – | – | – | – | 2 (≈ 3.96 µM)
23 | CN[C@@H]1C(O)[C@@H](O[C@@H]2[C@@H](O)[C@H](OC3OC(CN)=CC[C@H]3N)[C@@H](N)C[C@H]2NC(=O)[C@@H](O)CN)OC[C@]1(C)O (stereo partly shown) [Mono-substituted Compound 5, reference compound] | – | – | – | – | 0.5 (≈ 0.935 µM)
24 | CN[C@@H]1C(O)[C@@H](O[C@@H]2[C@@H](O)[C@H](OC3OC(CN)=CC[C@H]3N)[C@@H](N)C[C@H]2NC(=O)[C@@H](O)CCN)OC[C@]1(C)O (stereo partly shown) [Mono-substituted Compound 6, reference compound] | – | – | – | – | 0.5 (≈ 0.911 µM)
25 | CN[C@@H]1C(O)[C@@H](O[C@@H]2[C@@H](O)[C@H](OC3OC(CN)=CC[C@H]3N)[C@@H](N)C[C@H]2NC(=O)C2(O)CNC2)OC[C@]1(C)O (stereo partly shown) [Mono-substituted Compound 7, reference compound] | – | – | – | – | 1 (≈ 1.83 µM)
